From US7011972B2, “Fusion polypeptide comprising two ligand binding domains” (The Scripps Research Institute, priority 2000, dated 2006)
Entries after “also recorded” stand apart in the source; their conditions may differ.

Experiments:
hPR (aa645-914) LBD = biological target: T1, hPR (aa645-914) LBD (Homo sapiens, UniProt P06401); assay: Ligand crossreactivity on PR fusion, 10×C7-TATA-luc reporter; format: cell-based; settings: PR LBD fusion proteins
T1 construct: The human PR truncated LBD (aa645-914) was amplified from PAPCMVGL914VPc′-SV; expressed in transfected cells; host or cells: HeLa cells, effector plasmid in pcDNA3.1(+)Zeo
T1 sequence (P06401 645-914): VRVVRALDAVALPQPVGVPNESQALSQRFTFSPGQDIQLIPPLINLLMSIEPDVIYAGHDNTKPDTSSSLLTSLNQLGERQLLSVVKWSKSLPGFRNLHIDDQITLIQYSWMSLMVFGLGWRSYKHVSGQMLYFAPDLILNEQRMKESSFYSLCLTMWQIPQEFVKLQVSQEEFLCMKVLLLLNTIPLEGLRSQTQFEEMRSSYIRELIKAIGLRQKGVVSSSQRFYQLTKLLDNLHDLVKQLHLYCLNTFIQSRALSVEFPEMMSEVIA
Protocol: (§1) Luciferase and βP-gal reporter assays.
The chimeric transcriptional regulators were then tested for their ability to regulate the 10×C7-TATA-luc reporter plasmid in a hormone dependent manner. 10×C7-TATA-luc contains ten C7 binding sites [5′-GCG TGG GCG-3′] spaced by 5 nucleotides, and a TATA box, upstream of the firefly luciferase coding region. […] RU486 stimulated the activity of VP16-C7-PR 26-fold, while 4-OHT led to a 43-fold activation of VP16-C7-ER. […] The presence of a NLS in either position was not only not required, but even undesirable, since it led to an increased basal (i.e. hormone-independent) activity of the fusion constructs, presumably through increased nuclear localization. Thus, the hPR (aa645-914) and mER (aa281-599, G525R) LBDs are able to confer hormone-dependence onto the zinc finger protein C7.

[1] = system: 10×B3-TATA-luc reporter (with B3-PR-VP16 and N1-ER-VP64) in HeLa cells; assay: Dual reporter assay, luciferase; format: cell-based; settings: HeLa cells expressing B3-PR-VP16 and N1-ER-VP64
Text: (§2) RU486- and Tamoxifen-inducible promoter constructs. 10×C7-TATA, 10×B3-TATA, and 10×N1-TATA fragments were assembled from two pairs of complementary oligonucleotides each and cloned into Sac1-Xma1 linearized pGL3-Basic (Promega), upstream of the firefly luciferase coding region, creating the plasmids 10×C7-TATA-luc, 10×B3-TATA-luc, and 10×N1-TATA-luc. To generate the 10×N1-TATA-lacZ reporter construct, the lacZ coding region was excised from pβgal-Basic (Clontech) and used to replace the luciferase coding region of 10×N1-TATA-luc via Hind3-BamH1 digestion. Luciferase and βP-gal reporter assays. […] Concomitant regulation of multiple promoters. Zinc finger technology has made a large repertoire of DNA binding specificities available for use in protein engineering [[…]., and Barbas, C. F., III (1998) Proc. Natl. Acad. Sci. USA 95, 14628-14633; […]., and Barbas, C. F., III (1999) Proc. Natl. Acad. Sci. USA 96, 2758-2763; […]., and Barbas, C. F., III (2000) Proc. Natl. Acad. Sci. USA 97, 1495-1500]. The availability of different steroid hormone receptor-derived regulatory domains [Littlewood, T. D., Hancock, […]., Parker, M. G., and Evan, G. I. (1995) Nucl. […] The transfected cells were treated with either RU486 or 4-OHT and the luciferase and β-gal activities were monitored.

[2] = system: 10×N1-TATA-β-gal reporter (with B3-PR-VP16 and N1-ER-VP64) in HeLa cells; assay: Dual reporter assay, β-gal; format: cell-based; settings: HeLa cells expressing B3-PR-VP16 and N1-ER-VP64
Text: as §2

ER-VP64 (mouse) = ER-VP64 (mouse) (UniProt P19785); assay: cell-based or functional assay
[3] = system: E2C-TATA-luciferase reporter plasmid carrying a single E2C binding site; assay: Luciferase reporter assay, E2C-TATA-luc in HeLa cells; format: cell-based; settings: 4-OHT
Protocol: A, structure of ER fusion proteins. E2C, six finger protein; L, flexible peptide linker. B, fusion proteins with a single ER-LBD bind as dimers. HeLa cells were cotransfected with a C7-ER-VP64 expression vector, and the indicated TATA luciferase reporter plasmids carrying either one or two C7 binding sites. 24 h after transfection, cells were either left untreated (−), or 100 nM 4-OHT was added (+). Luciferase activity in total cell extracts was measured 48 h after transfection. Each bar represents the mean value (+/−SD) of duplicate measurements. […] C, D, regulation of transcription through a single binding site by fusion proteins with two ER-LBDs. HeLa cells were cotransfected with the indicated expression vectors and the E2C-TATA-luciferase reporter plasmid, carrying a single E2C binding site upstream of a TATA box. 4-OHT induction and measurement of luciferase activity was carried out as described in B.
A, structure of single-chain RXR/EcR fusion proteins. B, regulation of transcription through a single binding site. HeLa cells were cotransfected with the indicated expression vectors and the E2C-TATA-luciferase reporter plasmid, carrying a single E2C binding site. 24 h after transfection, cells were either left untreated (−), or 5 μM Ponasterone A was added (+). Luciferase activity in total cell extracts was measured 48 h after transfection.
as §1
To overcome these problems, we produced two types of ER-based chimeric regulators, designed to be capable of regulating gene expression through a single binding site in a hormone-dependent manner. In the first strategy, a heterodimeric regulator was generated consisting of the engineered zinc finger protein E2C fused to an ER LBD, as well as an ER LBD fused to a VP64 activation domain (FIG. 2A). […] Addition of hormone led to a 3- to 5-fold stimulation of luciferase expression, indicating the formation of functional heterodimers. […]

Question: 4-hydroxytamoxifen [4-OHT] was tested. Which “crossreactivity between 4-OHT and PR” value (hPR (aa645-914) LBD) did it give?
Answer: no detectable crossreactivity; also recorded: no detectable crossreaction

Question: What about the “luciferase expression (10×B3-TATA-luc)” value [1] of the same molecule?
Answer: did not affect

Question: What about the “β-gal reporter gene activity (10×N1-TATA-β-gal)” value [2] of the same molecule?
Answer: efficiently activated

Question: `CC#C[C@]1(O)CC[C@H]2[C@@H]3CCC4=CC(=O)CCC4=C3[C@@H](c3ccc(N(C)C)cc3)C[C@@]21C` [RU486, 11β-(4-dimethylaminophenyl)-17β-hydroxy-17α-propinyl-4,9-e stradiene-3-one] was tested. Which “β-gal reporter gene activity (10×N1-TATA-β-gal)” value [2] did it give?
Answer: no effect

Question: For E2C-ER (from UniProt P19785 281-599), which luciferase expression from the E2C-TATA-luc reporter (single E2C site) in HeLa cells, stimulation by 4-OHT (ER-VP64 (mouse)) is on record?
Answer: 3 to 5 fold

Question: With “E2C-scER/18-VP64: single-chain fusion of E2C, two ER LBDs joined by 18 amino acid linker, VP64” as the molecule, how does the “hormone-dependent activation of E2C-TATA-luc reporter” value (“hormone-dependent activation” below) [3] read?
Answer: efficiently activated

Question: With “E2C-scER/30-VP64: single-chain fusion of E2C, two ER LBDs joined by 30 amino acid linker, VP64” as the molecule, how does the “hormone-dependent activation” value [3] read?
Answer: efficiently activated

B1: ER-VP64: ER LBD fused to a VP64 activation domain (protein)
chain: RNEMGASGDMRAANLWPSPLVIKHTKKNSPALSLTADQMVSALLDAEPPMIYSEYDPSRPFSEASMMGLLTNLADRELVHMINWAKRVPGFGDLNLHDQVHLLECAWLEILMIGLVWRSMEHPGKLLFAPNLLLDRNQGKCVEGMVEIFDMLLATSSRFRMMNLQGEEFVCLKSIILLNSGVYTFLSSTLKSLEEKDHIHRVLDKITDTLIHLMAKAGLTLQQQHRRLAQLLLILSHIRHMSNKRMEHLYNMKCKNVVPLYDLLLEMLDAHRLHAPASRMGVPPEEPSQTQLATTSSTSAHSLQTYYIPPEAEGFPNTI
modifications: left off: large carriers
Question: B1 was tested. Which “hormone-dependent activation” value [3] did it give?
Answer: inactive
